From patent US12357598B2, “Treatment of neurodevelopmental disorders” (THE REGENTS OF THE UNIVERSITY OF CALIFORNIA, priority 2018, dated 2025)

Assays:
Type in all cases: in vivo, mouse
ddY mice [1] = assay: Prepulse inhibition (PPI) test, offspring after maternal glyphosate exposure; settings: juvenile offspring, maternal 0.095% glyphosate vs water
Procedure: PPI: The offspring mice were tested for their acoustic startle reactivity (ASR) in a startle chamber (SR-LAB; San Diego Instruments, San Diego, CA, USA) using the standard methods described previously (9,10). The test sessions were begun after an initial 10-min acclimation period in the chamber. The mice were subjected to one of six trials: (1) pulse alone, as a 40 ms broadband burst; a pulse (40 ms broadband burst) preceded by 100 ms with a 20 ms prepulse that was (2) 4 dB, (3) 8 dB, (4) 12 dB, or (5) 16 dB over background (65 dB); and (6) background only (no stimulus). The amount of prepulse inhibition (PPI) was expressed as the percentage decrease in the amplitude of the startle reactivity caused by presentation of the prepulse (% PPI). The PPI test lasted 20 min in total.

ddY mice [2] = assay: NORT, offspring after maternal glyphosate exposure; settings: juvenile offspring, maternal 0.095% glyphosate
Procedure: Novel Object Recognition Test (NORT): Mice were habituated for 10 minutes in the test box for 3 straight days. At 4th day, two objects (differing in shape and color but of similar size) were placed in the box 35.5 cm apart (symmetrically), and each animal was allowed to explore in the box for 5 minutes. The animals were considered to be exploring the object when the head of the animal was both facing and within 2.54 cm of the object or when any part of the body, except for the tail was touching the object. The time that mice spent exploring each object was recorded. After training, mice were immediately returned to their home cages, and the box and objects were cleaned with 75% ethanol, to avoid any possible instinctive odorant cues. Retention tests were carried out at one-day intervals, following the respective training. During the retention test, each mouse was reintroduced into their original test box, and one of the training objects was replaced by a novel object. The mice were then allowed to explore freely for 5 minutes, and the time spent exploring each object was recorded. Throughout the experiments, the objects were counter-balanced, in terms of their physical complexity and emotional neutrality. […]

ddY mice [3] = assay: Short-chain fatty acids in fecal samples after maternal glyphosate exposure; settings: offspring after maternal glyphosate exposure
Procedure: Measurement of short-chain fatty acids—acetic acid, propionic acid, butyric acid, and valeric acid—in fecal samples was performed by the TechnoSuruga Laboratory, Co., Ltd. (Shizuoka, Japan).

sEH = assay: Western blot of sEH in brain regions of juvenile offspring after MIA
Procedure: Administration of poly(I:C) into pregnant mice. The schedule of poly(I:C) treatment was performed as reported previously (13,36-39). The pregnant mice were injected intraperitoneally (i.p.) for six consecutive days from E12 to E17 with poly(I:C) (5.0 mg/kg/day, Sigma-Aldrich Co. Ltd., St. Louis, MO, USA) dissolved in physiological saline, or an equivalent volume (5 ml/kg) of saline. The male offspring were separated from their mothers at wearing (P21), and mice were caged each three-five in the groups in clear polycarbonate cage (22.5×33.8×14.0 cm). Mice were housed under controlled temperatures and 12-hour light/dark cycles (lights on between 07:00-19:00 h), with ad libitum food and water.
Collection of brain samples and oxylipin profiling. […]
Western blot analysis. […] 50 μg of protein were measured using the DC protein assay kit (Bio-Rad), and incubated for 5 min at 95° C., with an equal volume of 125 mM Tris-HCl, pH6.8, 20% glycerol, 0.1% bromophenol blue, 10% β-mercaptoethanol, 4% sodium dodecyl sulfate, and subjected to sodium dodecyl sulfate polyacrylamide gel electrophoresis, using 7.5% or AnyKD mini-gels (Mini-PROTEAN® TGX™ Precast Gel; Bio-Rad, CA, USA). […] After final three washes with TBST, bands were detected using enhanced chemiluminescence (ECL) prime Western Blotting Detection system (GE Healthcare Bioscience). […]

Compound	prepulse inhibition (PPI) (ddY mice [1])	novel object recognition test (NORT) (ddY mice [2])	levels of acetic acid in the fecal samples (ddY mice [3])	propionic acid, butyric acid, and valeric acid in fecal samples (ddY mice [3])	sEH protein in striatum and hippocampus (CA1, CA3, DG) (sEH; poly(I:C) 5 mg/kg/day E12-E17)	levels of sEH protein in the PFC (sEH; poly(I:C) 5 mg/kg/day E12-E17, vs saline-treated mice)
O=C(O)CNCP(=O)(O)O [glyphosate]	not different	cognitive deficits	significantly increased	not different	–	–
polyriboinosinic-polyribocytidilic acid [Poly(I:C)]	–	–	–	–	no changes	significantly higher
